From patent US20260098007A1, “Compounds and Their Use in Filtering Ultraviolet and/or High-Energy Visible Light” (Soliome Inc., priority 2022, published 2026)
Where a SMILES comes first, the peptide text is derived from it. [ ]: non-standard residue; d: D form. Kyn = Nc1ccccc1C(=O)C[CH](N)C(=O)O

Columns and labels:
[1] = Absorbance spectrum (ultraviolet-visible spectroscopy, diode array detector); format: physicochemical; conditions: for absorbance region (in words): FIG. 1 and 2
Experimental: High pressure liquid chromatography: Samples were suspended in ethanol (Sigma Aldrich 103343081, CAS 64-17-5) and injected onto a reverse phase base deactivated silica C-18 column, […], 150×4.6 mm (Hypersil 9867). This column was temperature controlled at 35° C. using a Shimadzu CTO-10A column oven. Samples were injected with a Shimadzu SIL-10AD VP auto injector. The program was run using a Shimadzu LC1-20AD pump system, and detection was monitored with ultraviolet-visible spectroscopy from 200 to 700 nm using a Shimadzu SPD-M20A diode array detector.

[2] = Determination of maximal UV absorbance, extinction coefficients and critical wavelengths (UV visible spectroscopy); format: physicochemical; conditions: for peak absorbance: UV visible spectroscopy, diluted in ethanol; for critical wavelength: in vitro, 90% of the total absorbance integrated from 290 to 400 nm
Experimental: Extinction coefficients were determined by measuring the dry mass of each compounds and diluting it serially in ethanol (CAS […]). A series of concentrations were tested with UV visible spectroscopy.
In vitro critical wavelengths were determined by integrating the total absorbance from 290 to 400 nm and finding the region under that curve from higher energy to lower energy that is equal to 90% of the total absorbance, similar to that described by Diffey B. L., et al. J. Am. Acad. Dermatol. 2000, 43, 1024-1035.

[3] = OxiSelect Hydroxyl Radical Antioxidant Capacity (HORAC) Activity Assay; format: biochemical; conditions: for antioxidant potential (HORAC) compared with gallic acid: result in words
Text: An OxiSelect Hydroxyl Radical Antioxidant Capacity (HORAC) Activity Assay (Cell Biolabs Inc. catalog #STA-346-T) was used to determine the antioxidant potential of compound 4 (butyl 4-(2-aminophenyl)-2-(4-(2-aminophenyl)-2-butyramido-4-oxobutanamido)-4-oxobutanoate) following the manufacturer's protocol. Gallic Acid (GA) was used as antioxidant Calibrator: The HORAC assay was used to evaluate the application of the compounds of the invention as antioxidant.
A small amount of compound 4 was resuspended in assay diluent and the concentration determined using the extinction coefficient previously determined at 368 nm (6070 M^−1 cm^−1). The concentration of the stock solution was 624 μM. Three concentrations of the compound were tested in the assay: 468 μM, 312 μM, and 156 μM. The assay was run in a clear bottomed 96-well plate using a Molecular Devices SpectraMax M2 with an excitation wavelength of 480 nm and an emission wavelength of 530 nm. The emission wavelength cutoff was set to 515 nm. The photomultiplier sensitivity set to medium. The plate was read once a minute for 60 minutes.
Compounds 42, 43, 44, and 46, were tested for their antioxidant capacity as described as previously described using an OxiSelect Hydroxyl Radical Antioxidant Capacity (HORAC) Activity Assay (Cell Biolabs Inc. catalog #sta-346-T).

skin = test: Skin protection against damage by UV (erythema); format: in vivo; conditions: 10% (w/w) solution at 2 mg/cm^2 on skin, Sperti Sun Lamp 20 cm for 10 min, vs unprotected skin
Experimental: To test the protective capability of this class of compounds against damage to skin by UV, a 10% (w/w) solution of compounds was applied to skin at 2 mg/cm^2 and allowed to dry for 15 minutes. UV light was introduced using a […] Sun Lamp (model Miami P107). The application area on the skin was held facing the lamp at a distance of 20 cm for 10 min.

With `COC(=O)C(CC(=O)c1ccccc1N)NC(=O)C(CC(=O)c1ccccc1N)NC(C)=O` (centres unmarked) [Compound 1, methyl 2-(2-acetamido-4-(2-aminophenyl)-4-oxobutanamido)-4-(2-aminophenyl)-4-oxobutanoate] (Ac-[Kyn]-[Kyn]-OMe; configuration not given here) the “absorbance upper wavelength limit” value ([1]; FIG. 1) was “up to 410 nm” and the “absorbance region (in words)” value [1] was “strong absorbance in the UVA region”.

With `CCCC(=O)Nc1ccccc1C(=O)CC(NC(C)=O)C(=O)NC(CC(=O)c1ccccc1NC(=O)CCC)C(=O)OC` (centres unmarked) [Compound 2, Methyl 2-(2-acetamido-4-(2-butyramidophenyl)-4-oxobutanamido)-4-(2-butyramidophenyl)-4-oxobutanoate] the “absorbance region (in words)” value [1] was “strong absorbance in the UVB region”.

For `CCCCOC(=O)C(CC(=O)c1ccccc1N)NC(=O)C(CC(=O)c1ccccc1N)NC(=O)CCC` (centres unmarked) [Compound 4, butyl 4-(2-aminophenyl)-2-(4-(2-aminophenyl)-2-butyramido-4-oxobutanamido)-4-oxobutanoate], the peak absorbance [2] was “around 368 nm”, the critical wavelength [2] was 385 nm and the “antioxidant potential (HORAC)” value ([3]; tested at 468 μM, 312 μM and 156 μM, gallic acid as calibrator) was 1.8 gallic acid equivalents per mole.

For `CCCCOC(=O)C(CC(=O)c1ccccc1NC(=O)CCC)NC(=O)C(CC(=O)c1ccccc1NC(=O)CCC)NC(=O)CCC` (centres unmarked) [Compound 5, butyl 2-(2-butyramido-4-(2-butyramidophenyl)-4-oxobutanamido)-4-(2-butyramidophenyl)-4-oxobutanoate], the peak absorbance [2] was “around 325 nm”, the critical wavelength [2] was 355 nm and the extinction coefficient ([2]; slope of absorbance vs concentration, in ethanol, at peak absorbance) was 4600 M⁻¹ cm⁻¹.

For `Nc1ccccc1C(=O)CC(NC(=O)CCC(=O)O)C(=O)O` (centres unmarked) [Compound 42, 4-(2-aminophenyl)-2-(3-carboxypropanamido)-4-oxobutanoic acid], the “antioxidant potential (HORAC) compared with gallic acid” value [3] was “equal, or greater than, gallic acid” and the “erythema after UV exposure” value (skin) was “significantly reduced erythema”.

With `COC(=O)C(CC(=O)c1ccccc1N)NC(=O)C[N+](C)(C)C` (centres unmarked) [Compound 43, 2-((4-(2-aminophenyl)-1-methoxy-1,4-dioxobutan-2-yl)amino)-N,N,N-trimethyl-2-oxoethan-1-aminium] the “antioxidant potential (HORAC) compared with gallic acid” value [3] was “equal, or greater than, gallic acid”.

For `CC(=O)NC(CC(=O)c1ccccc1N)C(N)=O` (centres unmarked) [Compound 44, 2-acetamido-4-(2-aminophenyl)-4-oxobutanamide], the “antioxidant potential (HORAC) compared with gallic acid” value [3] was “equal, or greater than, gallic acid”.

For `Nc1ccccc1C(=O)CC(NC(=O)CCCC(=O)O)C(=O)O` (centres unmarked) [Compound 46, 5-((3-(2-aminophenyl)-1-carboxy-3-oxopropyl)amino)-5-oxopentanoic acid], the “antioxidant potential (HORAC) compared with gallic acid” value [3] was “equal, or greater than, gallic acid”.
